Data: US20240238268A1, “TREATMENTS AND METHODS FOR TREATING ALZHEIMER'S DISEASE” (Board of Supervisors of Louisiana State University and …, priority 2021, published 2024)

Experiments:
Type in all cases: in vivo, mouse
VCAM-1 = VCAM-1 level, protein chip assay; settings: aged 3xTg-AD female mice; cortex and hippocampus; 30 mg/kg, 7 days, IP
Experimental: (§1) FIGS. 19A-19F are six graphs showing PRMT4 inhibitor (TP-064) reduced ICAM-1, VCAM-1 and enhanced E-Cadherin protein levels in aged female 3xTg-AD mice. In FIGS. 19A-19D, aged 3xTg-AD female mice v. […] Adhesion molecules were assessed via protein chip assay in the cortex and hippocampus. * p<0.05 evaluated by one-way ANOVA with Tukey's post-hoc analyses.

iNOS = iNOS protein level in brain, capillary-phoresis; settings: treated 3xTg-AD mice; control = 100%
Text: (§2) Capillary-phoresis immunoassay via ProteinSimple®: Quantification of all protein targets was achieved using Simple Western analysis in a Jess™ apparatus per the manufacturer's protocol (ProteinSimple, Bio-techne, Minneapolis, MN). Protein was extracted from dissected tissue in an extraction buffer consisting of T-PER® Tissue Protein Extraction Reagent (Cat. No. 78510, Thermo Fischer Scientific, Waltham, MA) and Halt™ Protease Inhibitor Cocktail (Cat. No. 87785, Thermo Fischer Scientific, Waltham, MA). Following homogenization and centrifugation (10,000×g, 5 min, 4° C.), protein concentration was determined in tissue protein supernatant samples using DC Protein Assay (Cat. No. 5000112, Bio-Rad Laboratories, Hercules, California) according to manufacturer instructions. […] Antibody diluent (ProteinSimple, Bio-techne, Minneapolis, MN) was used for all antibody dilutions as follows: PRMT4 (1:50, RRID: AB_2068436), PRMT6 (1:100, Cell Signaling Technology cat. 14641), eNOS (1:200, RRID: AB_10850618), nNOS (1:100, RRID: AB_2152488), iNOS (1:100, RRID: AB_10000625), DDAH2 (1:50, RRID: AB_2640442) Antibodies were detected using HRP-conjugated secondary anti-rabbit, and -mouse. Relative protein levels were calculated by measuring the area under the peak of a chemiluminescent chromatogram and normalized to total capillary chemiluminescence for a given sample. […]

aged 3xTg-AD female mice [1] = assay: Novel Object Recognition
Experimental: (§3) FIGS. 20A and 20B are two graphs showing PRMT4 inhibitor (TP-064) or AAV knockdown of PRMT4 improved functional learning/memory in aged 3xTg-AD female mice. […] C57 but increased with administration of TP-064 (30 mg/kg, 7 days, IP). In FIG. 20B, in Novel Object Recognition, aged 3xTg-AD female mice had fewer number of entries in the novel zone v. C57. Treatment with TP-064 or brain-specific AAV knockdown of PRMT4 increased the number of entries. T-maze and novel object recognition test were utilized to analyze working/short-term and reference/long-term memory, respectively. * p<0.05 v. C57 via one-way ANOVA with Tukey's post-hoc analyses.

E-Cadherin = E-Cadherin level, protein chip assay; settings: aged 3xTg-AD female mice; cortex and hippocampus; 30 mg/kg, 7 days, IP
Experimental: as §1

nNOS = nNOS protein level in brain, capillary-phoresis; settings: treated 3xTg-AD mice; control = 100%
Text: as §2

NO3+NO2 = assay: Nitrate/Nitrite colorimetric assay (Griess reaction) of whole brain; settings: 3xTg-AD mice; 30 mg/kg, IP, 7 days
Experimental: Nitrate/Nitrite colorimetric assay: Following euthanasia, whole brains were dissected from mice. Cold (4 °C) phosphate-buffered saline (PBS) and glass tissue grinders were used to homogenize the whole brain. Homogenates were centrifuged at 10,000×g for 20 min at 4° C. The supernatant was collected and filtered using 10 kDa ultrafilter (Cat. No. […]010, Millipore, Burlington, VA). Nitrate and nitrite were quantified per manufacturer's instructions (Cat. No. 780001, Cayman Chemical, Ann Arbor, MI). In summary, 80 μL of supernatant was loaded into a 96-well plate with 10 μL enzyme cofactor, and 10 μL nitrate reductase. Following 3 hrs of incubation, 100 μL Griess reagent was added, and plate was incubated for 30 min. The standard curve was provided by the manufacturer, and all sample concentrations were determined from the standard curve values. Changes in absorbance were measured at 550 nm. Final nitrate/nitrite levels were expressed in μM concentration.

[2] = Toxicity: blood counts, liver enzymes, kidney function
Text: The inventors have on-going studies to screen for major organ toxicity. Plasma liver enzymes (ALT/AST) and kidney function were normal in TP-064-treated mice.

ICAM-1 = ICAM-1 level, protein chip assay; settings: aged 3xTg-AD female mice; cortex and hippocampus; 30 mg/kg, 7 days, IP
Experimental: as §1

aged 3xTg-AD female mice [3] = assay: BBB permeability: Evan's blue brain penetration; settings: formamide extraction of whole brain
Text: FIG. 15 is a graph showing blood brain barrier permeability was impaired in aged 3xTg-AD female mice but reversed with TP-064. […] Formamide extraction of Evan's blue infused-whole-brain was quantified. * p<0.05 compared to C57, #p<0.05 compared to 3xTg-AD, evaluated by one-way ANOVA with Tukey's post-hoc analysis.

aged 3xTg-AD female mice [4] = assay: T-maze spontaneous alternation; settings: 30 mg/kg, 7 days, IP
Experimental: as §3

## CNCCN1CCC(c2cc(CN(C)C(=O)c3cccc(Oc4ccccc4)c3)ccn2)CC1 [TP-064, N-Methyl-N-((2-(1-(2-(methylamino)ethyl)piperidin-4-yl)pyridin-4-yl)methyl)-3-phenoxybenzamide]
VCAM-1
  VCAM-1 level: decreased
iNOS
  iNOS level in cortical lysates: 197%±24.1
  iNOS level in hippocampal lysates: 157%±17.5
Aged 3xTg-AD female mice [1]
  number of entries in the novel zone: increased
E-Cadherin
  E-Cadherin level: elevated
nNOS
  nNOS level in cortical lysates: 40.3%±2.88
  nNOS level in hippocampal lysates: 133%±8.15
NO3+NO2
  total NO3+NO2 in whole-brain lysate: 3.90 ± 0.667 µM
[2]; mice treated 7 days
  complete blood counts: no abnormalities
[2]; treated mice
  Plasma liver enzymes (ALT/AST): normal
  kidney function: normal
ICAM-1
  ICAM-1 level: decreased
Aged 3xTg-AD female mice [3]
  brain penetration of Evan's blue (BBB leakage): lower brain penetration of Evan's blue
Aged 3xTg-AD female mice [4]
  T-maze spontaneous alternation ratio: increased
